This note sets out measurements from patent publication US8796297B2, “4-substituted-2-amino-pyrimidine derivatives” (AbbVie Inc., priority 2009, dated 2014).

For orientation: EC50 means the concentration at which the effect is half-maximal. Low readings indicate greater potency, high ones weaker potency. A word on the Ki: it is a dissociation constant, usually derived from enzyme kinetics or from competition with a known ligand. Read a high Ki as weaker binding.

Test [1] concerns the target T1, rat histamine H3 receptor (Rattus norvegicus (Rat), UniProt Q9QYN8). The test can be described thus: FLIPR functional assay (Ca2+, HEK-293 cells coexpressing Gαqi5), rat H3 receptor. Type of test: cell-based. As to conditions: for EC50: FLIPR agonist potency; for Rat Maximum (%): FLIPR, percentage of the response to 1 μM RAMH. An excerpt:
(§1) There are many methods available to show the effectiveness of compounds as histamine H3 receptor ligands. Histamine H3 receptors from mammalian species have been cloned. Methods to clone, express, and assess the potency and functional activity of such cloned genes are well known to those skilled in the art of molecular biology. […] In the present case, to determine the potency and effectiveness of representative compounds of this invention as histamine-H3 receptor ligands (H3 receptor ligands), the following tests were conducted according to previously described methods (see Esbenshade, et al., Journal of Pharmacology and Experimental Therapeutics 2003, 305, 887-896, Esbenshade, et al., Biochemical Pharmacology 2004, 68, 933-945, and in Krueger, et al., Journal of Pharmacology and Experimental Therapeutics 2005, 314, 271-281): histamine H3 receptors were cloned and stably expressed in HEK-293 (human embryonic kidney) cells coexpressing a Gαqi5. Before testing, cells were loaded with a Ca^+2 sensitive fluorescent dye, in this case Fluo-4. For partial agonist or full agonist ligands, addition of compound to the cells led to an increase in intracellular Ca^+2 which was detected by FLIPR (Fluorescence Imaging Plate Reader; Molecular Devices, Sunnyvale, Calif.) technology. The fluorescence intensities measured before addition of the test compound were subtracted from the fluorescence intensities at later time points. Peak response values determined at each concentration of ligand were expressed as a percentage of the response obtained with a maximal concentration (1 μM) of the full agonist R-α-methyl-histamine (RAMH). Concentration versus response data were analyzed to obtain compound potency as EC50 values for full and partial agonists.

The target in another test is H3 receptor (Mus musculus (Mouse), UniProt P58406). The test can be described thus: Mouse dipsogenia model (water intake). Format: in vivo, CD-1 mouse. The procedure: Intraperitoneal administration of an H3 receptor agonist such as R-alpha-methyl-histamine elicits drinking in the hydrated CD-1 mouse (Fox, G. B.; et al. Pharmacology Biochemistry and Behavior 2002, 72, 741-750). This dipsogenic response is an indication of agonist activity in vivo and can be monitored by measuring the water intake of drug-treated animals in a 30 minute period.

The next test concerns the target rat H3R (Rattus norvegicus (Rat), UniProt Q9QYN8). The test can be described thus: GTPγS functional assay, membranes from C6 cells expressing the rat H3R. Format: biochemical. The following applies: for EC50: GTPγS agonist potency; for Emax: 5 min, read-out: Rat Maximum (%). As for the experimental part: (§2) Membranes from HEK cells expressing the human H3R, or from C6 cells expressing the rat H3R, were prepared by homogenization in cold buffer containing 50 mM Tris-HCl (pH 7.4), 5 mM EDTA, 10 mM MgCl2, 1 mM benzamidine, 2 μg/ml aprotinin, 1 μg/ml leupeptin, and 1 μg/ml pepstatin. The homogenate was centrifuged at 40,000 g for 20 min at 4° C., and the resulting pellet was resuspended in 50 mM Tris-HCl (pH 7.4), 5 mM EDTA, and 10 mM MgCl2 and homogenized. Glycerol and bovine serum albumin were added to a final concentration of 10% glycerol and 1% bovine serum albumin. Membranes were diluted in GTPγS assay buffer (25 mM HEPES, 2.5 mM MgCl2, and 75 mM NaCl, pH 7.4) and 10 μg of membrane protein was incubated in a 96-well deep-well block in the presence of 5.0 μM unlabeled GDP, approximately 0.5 nM of [^35S]GTPγS, and increasing concentrations of test compounds. Samples were incubated at 37° C. for 5 min and the assays were terminated by the addition of cold buffer (50 mM Tris-HCl, 75 mM NaCl, and 2.5 mM MgCl2, pH 7.6) and subsequent harvesting onto a Packard Unifilter 96-well GF/B plate followed by extensive washing. Microscint 20 (PerkinElmer Life Sciences) was added to the samples, and bound [^35S]GTPγS was determined using the Topcount (Perkin Elmer Life Sciences). The percentage of [^35S]GTPγS bound in each sample was calculated as a percentage of that bound to control samples incubated in the absence of the H3R agonists (basal). Data were analyzed from experiments performed in triplicate using GraphPad Prism to obtain pEC50 values, Hill slopes, and maximal % response.

Test [2] has as its target T1, rat histamine H3 receptor. The test can be described thus: Radioligand competition binding assay, rat H3 receptor. As to conditions: [3H]-N-α-methylhistamine competition binding. As for the experimental part: To determine the effectiveness of representative compounds of this invention as histamine-3 receptor ligands (H3 receptor ligands), the following tests were conducted according to previously described methods (see European Journal of Pharmacology 1990, 188, 219-227; Journal of Pharmacology and Experimental Therapeutics 1995, 275, 598-604; Journal of Pharmacology and Experimental Therapeutics 1996, 276, 1009-1015; and Biochemical Pharmacology 1973, 22, 3099-3108).
The rat H3 receptor was cloned and expressed in cells, and competition binding assays carried out, according to methods previously described (see Esbenshade, et al. Journal of Pharmacology and Experimental Therapeutics 2005, 313, 165-175; Esbenshade et al., Biochemical Pharmacology 2004, 68, 933-945; and Krueger, et al. Journal of Pharmacology and Experimental Therapeutics 2005, 314, 271-281). Membranes were prepared from C6 or HEK293 cells, expressing the rat histamine H3 receptor, by homogenization on ice in TE buffer (50 mM Tris-HCl buffer, pH 7.4, containing 5 mM EDTA), 1 mM benzamidine, 2 μg/ml aprotinin, 1 μg/ml leupeptin, and 1 μg/ml pepstatin. The homogenate was centrifuged at 40,000 g for 20 minutes at 4° C. This step was repeated, and the resulting pellet was resuspended in TE buffer. Aliquots were frozen at −70° C. until needed. On the day of assay, membranes were thawed and diluted with TE buffer.
Membrane preparations were incubated with [^3H]-N-α-methylhistamine (0.5-1.0 nM) in the presence or absence of increasing concentrations of ligands for H3 receptor competition binding. The binding incubations were conducted in a final volume of 0.5 ml TE buffer at 25° C. and were terminated after 30 minutes. Thioperamide (30 μM) was used to define non-specific binding. All binding reactions were terminated by filtration under vacuum onto polyethylenimine (0.3%) presoaked Unifilters (Perkin Elmer Life Sciences) or Whatman GF/B filters followed by three brief washes with 2 ml of ice-cold TE buffer. Bound radiolabel was determined by liquid scintillation counting. For all of the radioligand competition binding assays, IC50 values and Hill slopes were determined by Hill transformation of the data and pKi values were determined by the Cheng-Prusoff equation.

In test [3] the target is T2, human histamine H3 receptor (Homo sapiens (Human), UniProt Q9Y5N1). The test can be described thus: FLIPR functional assay (Ca2+, HEK-293 cells coexpressing Gαqi5), human H3 receptor. Format: cell-based. As to conditions: for EC50: FLIPR agonist potency; for Emax: HEK293, read-out: Human Maximum (%).
Excerpt: as §1

Test [4] concerns acetic acid-induced writhing. The test can be described thus: Acetic acid-induced writhing in mice. Format: in vivo. The following applies: subcutaneous dose of 300 mg/kg, 30 minutes prior to 0.9% acetic acid ip. As for the experimental part: Intraperitoneal injection of 0.9% acetic acid induces a writhing response that is quantified by counting the number of these induced characteristic lengthwise abdominal constrictions with torso elongations in a fixed time period (Langford, D. J.; et al. Science 2006, 312, 1967-1970). Reduction of the number of writhes by a compound administered 30 minutes prior to acetic acid exposure is a measure of analgesic activity.

A further test deals with human H3R (Homo sapiens (Human), UniProt Q9Y5N1). The test can be described thus: GTPγS functional assay, membranes from HEK cells expressing the human H3R. Type of test: biochemical. As to conditions: for EC50: GTPγS agonist potency; for Emax: 5 min, read-out: Human Maximum (%). The procedure:
as §2

Test [5] concerns the target T2, human histamine H3 receptor. The test can be described thus: Radioligand competition binding assay, human H3 receptor. The following applies: [3H]-N-α-methylhistamine competition binding. On the technique in general: Loss of bound radioactivity is the signal in a displacement assay; it reports binding, not function.
Setting [6] is: [35S]GTPγS bound as percentage of basal.
Setting [7] is: FLIPR, percentage of the response to 1 μM RAMH.

A value given as a limit tells only on which side of the number the result lay.

Chain of human H3R (Q9Y5N1 whole entry): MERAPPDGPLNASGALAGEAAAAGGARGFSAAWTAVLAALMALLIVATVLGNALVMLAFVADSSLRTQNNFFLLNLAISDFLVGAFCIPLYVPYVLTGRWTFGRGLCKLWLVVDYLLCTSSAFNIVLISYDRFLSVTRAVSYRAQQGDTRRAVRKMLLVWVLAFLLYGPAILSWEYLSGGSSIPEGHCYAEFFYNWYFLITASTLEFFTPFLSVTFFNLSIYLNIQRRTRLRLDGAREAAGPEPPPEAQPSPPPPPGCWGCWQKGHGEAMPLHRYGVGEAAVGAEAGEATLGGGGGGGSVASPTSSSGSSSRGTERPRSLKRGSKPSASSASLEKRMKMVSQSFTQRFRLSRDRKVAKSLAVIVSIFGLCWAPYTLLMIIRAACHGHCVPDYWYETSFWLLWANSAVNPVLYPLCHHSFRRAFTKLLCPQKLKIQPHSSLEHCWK
T2 sequence (Q9Y5N1 whole entry): as above
Chain of rat H3R (Q9QYN8 whole entry): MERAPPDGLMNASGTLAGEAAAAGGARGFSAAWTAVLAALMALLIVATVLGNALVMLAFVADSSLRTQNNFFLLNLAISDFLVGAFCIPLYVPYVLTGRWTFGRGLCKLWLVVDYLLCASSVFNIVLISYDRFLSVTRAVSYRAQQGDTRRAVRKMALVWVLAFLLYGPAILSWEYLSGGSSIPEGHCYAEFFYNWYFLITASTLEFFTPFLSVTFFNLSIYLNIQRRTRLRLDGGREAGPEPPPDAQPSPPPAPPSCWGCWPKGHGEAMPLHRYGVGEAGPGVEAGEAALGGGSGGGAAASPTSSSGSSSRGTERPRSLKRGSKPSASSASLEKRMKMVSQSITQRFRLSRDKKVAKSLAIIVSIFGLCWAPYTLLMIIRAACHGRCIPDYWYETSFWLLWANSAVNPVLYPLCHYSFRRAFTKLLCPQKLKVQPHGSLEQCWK
T1 sequence (Q9QYN8 whole entry): as above
Chain of H3 receptor (P58406 whole entry): as the sequence (Q9QYN8 whole entry) above, with T15A, A286T, A290G, R387H, I389V counted along it

For the compound `NCCNc1ccnc(N)n1.O=C(O)C(O)C(O)C(=O)O` [Example 1, N^4-(2-aminoethyl)pyrimidine-2,4-diamine(2R,3R)-2,3-dihydroxysuccinate], the EC50 was 5.47 nM in test [1], 174 nM on rat H3R, 124 nM in test [3] and 513 nM on human H3R. In addition, the “Rat Maximum (%)” value in test [1] was 100.0%; at rat H3R (setting [6]), 181%. On H3 receptor (dose dependently at 80, 160, and 240 μmol/kg, ip, 30 minute period, hydrated CD-1 mouse), the “water intake (dipsogenic response)” value is reported as “induced water intake”. For the same compound, the values for the inhibitory constant (Ki) in test [2] and in test [5] were 5.5 nM and 63.1 nM, respectively. For the same compound, the “Human Maximum (%)” value in test [3] (setting [7]) came out at 60.2%; on human H3R (setting [6]), 147%. The number of writhes entry in test [4] is given as “significantly reduced”.
In the case of `CC(C)(C)OC(=O)N1CCC(CNc2ccnc(N)n2)CC1` [Example 15, tert-butyl 4-((2-aminopyrimidin-4-ylamino)methyl)piperidine-1-carboxylate], the Emax at rat H3R (setting [6]) came to 138%; in test [3] (setting [7]), 39%; on human H3R (setting [6]), 117%. In addition, the concentration giving a half-maximal response (EC50) came out at 7410 nM at rat H3R, 43.6 nM in test [3] and 4790 nM on human H3R. The inhibitory constant (Ki) was above 331 nM in test [2] and above 355 nM in test [5].
As to `Nc1nccc(N[C@H]2CC[C@H](N)CC2)n1` [Example 16, Trans-N^4-(4-aminocyclohexyl)pyrimidine-2,4-diamine], in test [1], the “Rat Maximum (%)” value is listed as 74.0%. Also, the EC50 in test [3] amounted to 17700 nM. Also, the Emax in test [3] (setting [7]) was 34.2%. The Ki in test [5] was above 363 nM.
Regarding `CC(C)(C)OC(=O)N1CC[C@@H](Nc2ccnc(N)n2)C1` [Example 17, (R)-tert-butyl 3-(2-aminopyrimidin-4-ylamino)pyrrolidine-1-carboxylate], the 50% effective concentration (EC50) in test [1] was determined as 4790 nM; on rat H3R, 2340 nM. The “Rat Maximum (%)” value in test [1] is reported as 75.8%. In addition, the Emax at rat H3R (setting [6]) stood at 130%. Also, the inhibitory constant (Ki) is above 339 nM in test [2] and above 363 nM in test [5].
As to `Cl.Cl.Nc1nccc(N[C@@H]2CCNC2)n1` [Example 18, (R)—N^4-(pyrrolidin-3-yl)pyrimidine-2,4-diamine dihydrochloride], the results for the concentration for a half-maximal effect (EC50) (in test [1]; at rat H3R; at human H3R) were 74 nM, 1620 nM and 2510 nM, respectively. Also, the “Rat Maximum (%)” value in test [1] was 78.6%. Further, the Emax at rat H3R (setting [6]) worked out at 162%; on human H3R (setting [6]) it was 179%. The inhibition constant Ki in test [2] was 162 nM; in test [5], above 363 nM.
As for `Cl.Cl.Nc1nccc(N2CCC(N)CC2)n1` [Example 20, 4-(4-aminopiperidin-1-yl)pyrimidin-2-amine dihydrochloride], the EC50 in test [1] amounted to 51.7 nM; at rat H3R, 724 nM; in test [3], 254 nM; at human H3R, 1050 nM. For the same compound, the “Rat Maximum (%)” value in test [1] worked out at 83.0%. The Emax at rat H3R (setting [6]) came to 123%; in test [3] (setting [7]), 41%; on human H3R (setting [6]), 122%. The inhibitory constant (Ki) in test [2] is 58.9 nM; in test [5] it was 302 nM.
For `O=C(c1ccc(OCCCc2cnc[nH]2)cc1)C1CC1` [ciproxifan, reference compound], the “effect on dipsogenic response to Example 1” value at H3 receptor (ciproxifan 3 μmol/kg, ip against Example 1 240 μmol/kg) is listed as “blocked”.
